Holding throughout (assay type): cell-based
Series [1] has as its target T1, 3-hydroxy-3-methylglutaryl-coenzyme A reductase (Cricetulus griseus, UniProt P00347).
T1 sequence (P00347 whole entry): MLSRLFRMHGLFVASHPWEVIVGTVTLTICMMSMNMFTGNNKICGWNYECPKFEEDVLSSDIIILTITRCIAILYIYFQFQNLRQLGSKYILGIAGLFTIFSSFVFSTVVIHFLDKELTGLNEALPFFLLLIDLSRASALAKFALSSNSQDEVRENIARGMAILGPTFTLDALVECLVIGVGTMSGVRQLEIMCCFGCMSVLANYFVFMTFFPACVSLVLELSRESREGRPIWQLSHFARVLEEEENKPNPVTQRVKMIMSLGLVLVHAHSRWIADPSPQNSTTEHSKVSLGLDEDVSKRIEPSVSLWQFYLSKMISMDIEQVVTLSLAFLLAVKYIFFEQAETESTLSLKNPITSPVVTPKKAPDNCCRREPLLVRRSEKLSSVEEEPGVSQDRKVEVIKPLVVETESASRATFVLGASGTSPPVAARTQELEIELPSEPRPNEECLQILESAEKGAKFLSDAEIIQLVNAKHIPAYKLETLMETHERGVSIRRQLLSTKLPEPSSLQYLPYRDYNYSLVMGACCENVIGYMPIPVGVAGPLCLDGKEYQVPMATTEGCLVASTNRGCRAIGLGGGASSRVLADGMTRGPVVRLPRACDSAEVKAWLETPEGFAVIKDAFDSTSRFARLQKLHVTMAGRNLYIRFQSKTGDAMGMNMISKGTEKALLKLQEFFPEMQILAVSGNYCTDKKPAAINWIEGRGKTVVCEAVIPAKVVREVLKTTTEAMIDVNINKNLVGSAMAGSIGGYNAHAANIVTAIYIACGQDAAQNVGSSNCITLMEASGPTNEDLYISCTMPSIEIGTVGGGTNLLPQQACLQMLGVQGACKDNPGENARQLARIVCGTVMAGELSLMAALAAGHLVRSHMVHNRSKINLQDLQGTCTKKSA
Description: Induction of degradation of hamster HMGCR (TM1-8)-GFP (1 to 346 residues) transfected in CHO-7 cells incubated for 16 hrs in sterol-depleted medium by fluorescence based microplate reader assay.

Series [2] is described as follows: Toxicity in human SV589 cells assessed as cholesterol accumulation in lysosome at 10 uM incubated for 16 hrs by immunofluorescence based confocal microscopy. The settings on record: sv-589, 16 h.
Series [3] in a line: Toxicity in human SV589 cells assessed as cholesterol accumulation in lysosome at 2.5 uM incubated for 16 hrs by immunofluorescence based confocal microscopy. As to conditions: sv-589, 16 h.

The source of these data is ChEMBL document CHEMBL5154848, “Synthesis of heterocyclic ring-fused analogs of HMG499 as novel degraders of HMG-CoA reductase that lower cholesterol” (Eur J Med Chem, 2022).

SMILES strings stand for the structures.

For orientation: EC50 means the midpoint of the concentration-response curve. The low end stands for a more potent agent, the high end for a less potent agent. Consider `C[C@H](CCC(=O)O)[C@H]1CC[C@H]2[C@@H]3CC=C4C(C)(C)c5nonc5C[C@]4(C)[C@H]3CC[C@]12C`, for which, in series [1], the EC50 came out at 5.81 µM. In addition, the Activity result in series [2] is listed as “Non-Toxic”.

The compound `C[C@H](CCC(=O)O)[C@H]1CC[C@H]2[C@@H]3CC=C4C(C)(C)c5sc(N)nc5C[C@]4(C)[C@H]3CC[C@]12C` had an EC50 in series [1] of 4.94 µM. The Activity entry in series [2] was “Non-Toxic”.

As for `C[C@H](CCC(=O)O)[C@H]1CC[C@H]2[C@@H]3CC=C4C(C)(C)c5nccnc5C[C@]4(C)[C@H]3CC[C@]12C`, a half-maximal effect in series [1] (EC50) was put at 5.02 µM. Besides, the Activity entry in series [2] is recorded as “Non-Toxic”.

`CCN(CC)CCO[C@H]1CC[C@@]2(C)C(=CC[C@@H]3[C@@H]2CC[C@]2(C)C(=O)CC[C@@H]32)C1.Cl`: the Activity result in series [3] is reported as “Toxic”.

On to `C=CCC(O)(CC=C)CCC[C@@H](C)[C@H]1CC[C@H]2[C@@H]3[C@@H](O)C=C4C(C)(C)[C@@H](O)CC[C@]4(C)[C@H]3CC[C@]12C`, for which the EC50 in series [1] stood at 0.41 µM. In series [2], the Activity result is given as “Toxic”.

`CC(C)C(=O)n1cnc2c1C(C)(C)C1=C[C@H](O)[C@H]3[C@@H]4CC[C@H]([C@H](C)CCC(=O)N5CCOCC5)[C@@]4(C)CC[C@@H]3[C@@]1(C)C2`: in series [1], the EC50 was found to be 0.73 µM. The Activity entry in series [2] is “Toxic”.

As to `CCC(O)(CC)CC[C@@H](C)[C@H]1CC[C@H]2[C@@H]3CC=C4C(C)(C)c5c(ncn5C(C)=O)C[C@]4(C)[C@H]3CC[C@]12C`, the midpoint of the response in series [1], the EC50, lay at 0.63 µM. For the same compound, the Activity entry in series [2] is recorded as “Non-Toxic”.

`CC(=O)n1cnc2c1C(C)(C)C1=C[C@H](O)[C@H]3[C@@H]4CC[C@H]([C@H](C)CCC(=O)N5CCOCC5)[C@@]4(C)CC[C@@H]3[C@@]1(C)C2` yielded a half-maximal effective concentration (EC50) in series [1] of 8.16 µM. Also, in series [2], the Activity entry is recorded as “Toxic”.

In series [1], `C[C@H](CCC(=O)O)[C@H]1CC[C@H]2[C@@H]3CC=C4C(C)(C)c5c(cnn5-c5ccccc5)C[C@]4(C)[C@H]3CC[C@]12C` showed an EC50 of 8.8 µM. In addition, the Activity result in series [2] is on record as “Non-Toxic”.
